Measured values taken from patent US9896522B2, “Solid phase fluorescence labeling reagents and uses thereof” (The Texas A&M University System, priority 2010, dated 2018).

Legend:
[1] = buffer, pH 2; cited from earlier work
[2] = UV absorbance spectra and molar absorbance; assay type: physicochemical
Method: UV absorbance spectra were recorded using a Beckman 168 photodiode detector during the HILIC separations. The eluent compositions at the time of detection were 26 mM NH4HCO2 74% ACN/water for APTS, 24 mM NH4HCO2 76% ACN/water for trisulfonamide 22 and 10 mM MOPS with 5 mM NaOH in 76% ACN/water for 33. Fluorescence spectra at different pH values were recorded on a Shimadzu RF-5301PC spectrofluorometer. The buffers used are tabulated below: UV absorbance and fluorescence spectra for the quantum yield determinations were acquired using a Varian 100 Bio UV-Vis spectrophotometer and a Varian Cary Eclipse fluorescence spectrometer, respectively. The samples were dissolved in a pH 9 0.1M aqueous sodium bicarbonate buffer.

[3] = fluorescence emission spectra at different pH values; assay type: physicochemical; details: fluorescence emission spectrum
Method: It was also developed to have pH-independent fluorescence properties which are important for CE applications. […] The molar absorbance and relative quantum yield values were also determined using Rhodamine 6G as a standard. UV absorbance spectra were recorded using a Beckman 168 photodiode detector during the HILIC separations. The eluent compositions at the time of detection were 26 mM NH4HCO2 74% ACN/water for APTS, 24 mM NH4HCO2 76% ACN/water for trisulfonamide 22 and 10 mM MOPS with 5 mM NaOH in 76% ACN/water for 33. Fluorescence spectra at different pH values were recorded on a Shimadzu RF-5301PC spectrofluorometer.

SMILES: CCCCCCCCCCCC1(C)OCC(COCCCS(=O)(=O)[O-])O1.[Na+] (stereo not shown) [ALS]
- half life [1]: 8 min

SMILES: Nc1cc(S(=O)(=O)O)c2ccc3c(S(=O)(=O)O)cc(S(=O)(=O)O)c4ccc1c2c43 [APTS, 8-Aminopyrene-1,3,6-trisulfonic acid, reference compound]
- share of the maximum absorbance that can be used at 488 nm ([2]; excitation at 488 nm): about 4%

SMILES: CN(CCS(=O)(=O)O)S(=O)(=O)c1cc(N)c2ccc3c(S(=O)(=O)N(C)CCS(=O)(=O)O)cc(S(=O)(=O)N(C)CCS(=O)(=O)O)c4ccc1c2c34 [compound 22]
- λmax em [3]: 540 nm
- shift of λmax ex towards longer wavelength ([2]; relative to APTS): 44 nm
